Experiment [1] deals with Methionine--tRNA ligase (Staphylococcus aureus (strain Mu50 / ATCC 700699)) (UniProt P67578). In words: Binding affinity to Staphylococcus aureus MetRS expressed in Escherichia coli BL21(DE3) cells assessed as change in enthalpy in presence of 1 mM ATP by ITC analysis. (In general: ITC needs no label: the signal is the heat of the interaction.)
For experiment [2] the target is unchanged. In words: Binding affinity to Staphylococcus aureus MetRS expressed in Escherichia coli BL21(DE3) cells assessed as change in Gibbs free energy in presence of 1 mM ATP by ITC analysis.
Experiment [3] shares this target. In words: Binding affinity to Staphylococcus aureus MetRS expressed in Escherichia coli BL21(DE3) cells assessed as change in entropy in presence of 1 mM ATP by ITC analysis.
The target is the same in experiment [4]. In words: Binding affinity to Staphylococcus aureus MetRS expressed in Escherichia coli BL21(DE3) cells assessed as change in enthalpy by ITC analysis.
The target is the same in experiment [5]. Put plainly: Binding affinity to Staphylococcus aureus MetRS expressed in Escherichia coli BL21(DE3) cells assessed as change in Gibbs free energy by ITC analysis.
Experiment [6] shares this target. Put plainly: Binding affinity to Staphylococcus aureus MetRS expressed in Escherichia coli BL21(DE3) cells assessed as change in entropy by ITC analysis.
Experiment [7] shares this target. Put plainly: Binding affinity to Staphylococcus aureus MetRS expressed in Escherichia coli BL21(DE3) cells assessed as change in enthalpy in presence of 20 uM ATP by ITC analysis.
Experiment [8] shares this target. Put plainly: Binding affinity to Staphylococcus aureus MetRS expressed in Escherichia coli BL21(DE3) cells assessed as change in Gibbs free energy in presence of 20 uM ATP by ITC analysis.
The target is the same in experiment [9]. In words: Binding affinity to Staphylococcus aureus MetRS expressed in Escherichia coli BL21(DE3) cells assessed as change in entropy in presence of 20 uM ATP by ITC analysis.
The target is the same in experiment [10]. In words: Binding affinity to Staphylococcus aureus MetRS expressed in Escherichia coli BL21(DE3) cells assessed as change in enthalpy in presence of 50 uM ATP by ITC analysis.
For experiment [11] the target is unchanged. In words: Binding affinity to Staphylococcus aureus MetRS expressed in Escherichia coli BL21(DE3) cells assessed as change in Gibbs free energy in presence of 50 uM ATP by ITC analysis.
Experiment [12] has the same target. Put plainly: Binding affinity to Staphylococcus aureus MetRS expressed in Escherichia coli BL21(DE3) cells assessed as change in entropy in presence of 50 uM ATP by ITC analysis.
Experiment [13] shares this target. Put plainly: Binding affinity to Staphylococcus aureus MetRS expressed in Escherichia coli BL21(DE3) cells assessed as thermal stability by measuring change in melting temperature incubated for 10 mins followed by heat treatment in presence of 2 mM ATP by SYPRO orange dye based TSA.
The target is the same in experiment [14]. In words: Binding affinity to Staphylococcus aureus MetRS expressed in Escherichia coli BL21(DE3) cells assessed as change in melting temperature at 100 uM incubated for 10 mins followed by heat treatment by SYPRO orange dye based TSA (reference value: 53.7 degreeC).
The target is the same in experiment [15]. Put plainly: Binding affinity to Staphylococcus aureus MetRS expressed in Escherichia coli BL21(DE3) cells assessed as change in melting temperature at 100 uM incubated for 10 mins followed by heat treatment in presence of 2 mM ATP by SYPRO orange dye based TSA (reference value: 56.4 degreeC).
Experiment [16] has the same target. Put plainly: Inhibition of Staphylococcus aureus MetRS expressed in Escherichia coli BL21(DE3) cells at 100 uM measured after 2.5 hrs in presence of ATP by pre-transfer editing assay relative to control.
For the next experiment, the system named is Staphylococcus aureus. In words: Antibacterial activity against Staphylococcus aureus. Format: functional.
For experiment [17], the target named is Methionine--tRNA ligase (Staphylococcus aureus (strain Mu50 / ATCC 700699)) (UniProt P67578). In words: Binding affinity to Staphylococcus aureus MetRS expressed in Escherichia coli BL21(DE3) cells assessed as change in enthalpy in presence of ATP/L-Met by ITC analysis.
The target is the same in experiment [18]. In words: Binding affinity to Staphylococcus aureus MetRS expressed in Escherichia coli BL21(DE3) cells assessed as change in Gibbs free energy in presence of ATP/L-Met by ITC analysis.
Experiment [19] has the same target. In words: Binding affinity to Staphylococcus aureus MetRS expressed in Escherichia coli BL21(DE3) cells assessed as change in entropy in presence of ATP/L-Met by ITC analysis.
Experiment [20] shares this target. Put plainly: Inhibition of Staphylococcus aureus type 1 MetRS expressed in Escherichia coli BL21(DE3) cells at 50 uM measured after 2.5 hrs by pre-transfer editing assay.
For experiment [21], the target named is T1, Methionine--tRNA ligase (Enterococcus faecalis) (UniProt A0A3N3ZFK4). In words: Inhibition of Enterococcus faecalis type 1 MetRS expressed in Escherichia coli BL21(DE3) cells at 50 uM measured after 1.5 hrs by pre-transfer editing assay.
T1 sequence (A0A3N3ZFK4 as listed by the source): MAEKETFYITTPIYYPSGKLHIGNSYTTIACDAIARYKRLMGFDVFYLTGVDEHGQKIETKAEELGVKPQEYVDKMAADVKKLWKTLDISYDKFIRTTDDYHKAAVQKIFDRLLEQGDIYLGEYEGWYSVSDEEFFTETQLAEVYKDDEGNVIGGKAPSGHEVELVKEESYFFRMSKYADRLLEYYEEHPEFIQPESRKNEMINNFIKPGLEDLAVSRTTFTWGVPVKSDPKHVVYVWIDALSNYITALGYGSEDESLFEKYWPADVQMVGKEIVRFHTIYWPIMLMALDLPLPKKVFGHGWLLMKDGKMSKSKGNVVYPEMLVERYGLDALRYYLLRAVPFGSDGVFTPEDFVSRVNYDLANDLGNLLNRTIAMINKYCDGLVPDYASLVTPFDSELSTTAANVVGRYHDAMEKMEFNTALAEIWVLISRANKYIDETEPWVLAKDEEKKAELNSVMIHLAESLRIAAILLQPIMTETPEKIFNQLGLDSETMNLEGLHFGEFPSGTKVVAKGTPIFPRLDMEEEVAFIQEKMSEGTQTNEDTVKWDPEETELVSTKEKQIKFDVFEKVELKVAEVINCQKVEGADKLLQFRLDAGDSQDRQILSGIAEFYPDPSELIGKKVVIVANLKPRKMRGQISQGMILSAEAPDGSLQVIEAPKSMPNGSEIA
The target of experiment [22] is T1, Methionine--tRNA ligase (Enterococcus faecalis). In words: Binding affinity to Enterococcus faecalis type 1 MetRS expressed in Escherichia coli BL21(DE3) cells assessed as change in enthalpy in presence of 1 mM ATP by ITC analysis.
Experiment [23] has the same target. In words: Binding affinity to Enterococcus faecalis type 1 MetRS expressed in Escherichia coli BL21(DE3) cells assessed as change in Gibbs free energy in presence of 1 mM ATP by ITC analysis.
The target is the same in experiment [24]. In words: Binding affinity to Enterococcus faecalis type 1 MetRS expressed in Escherichia coli BL21(DE3) cells assessed as change in entropy in presence of 1 mM ATP by ITC analysis.
The target is the same in experiment [25]. In words: Binding affinity to Enterococcus faecalis type 1 MetRS expressed in Escherichia coli BL21(DE3) cells assessed as change in enthalpy by ITC analysis.
Experiment [26] shares this target. Put plainly: Binding affinity to Enterococcus faecalis type 1 MetRS expressed in Escherichia coli BL21(DE3) cells assessed as change in Gibbs free energy by ITC analysis.
Experiment [27] has the same target. In words: Binding affinity to Enterococcus faecalis type 1 MetRS expressed in Escherichia coli BL21(DE3) cells assessed as change in entropy by ITC analysis.
The target in experiment [28] is Methionine--tRNA ligase (Staphylococcus aureus (strain Mu50 / ATCC 700699)) (UniProt P67578). Put plainly: Binding affinity to Staphylococcus aureus MetRS expressed in Escherichia coli BL21(DE3) cells assessed as increase in melting temperature incubated for 10 mins followed by heat treatment in presence of 0.30 to 10 mM ATP by SYPRO orange dye based TSA.
The target is the same in experiment [29]. Put plainly: Binding affinity to Staphylococcus aureus MetRS expressed in Escherichia coli BL21(DE3) cells assessed as change in enthalpy in presence of 500 uM ATP by ITC analysis.
Experiment [30] shares this target. In words: Binding affinity to Staphylococcus aureus MetRS expressed in Escherichia coli BL21(DE3) cells assessed as change in Gibbs free energy in presence of 500 uM ATP by ITC analysis.
Experiment [31] has the same target. Put plainly: Binding affinity to Staphylococcus aureus MetRS expressed in Escherichia coli BL21(DE3) cells assessed as change in entropy in presence of 500 uM ATP by ITC analysis.
The target is the same in experiment [32]. Put plainly: Binding affinity to Staphylococcus aureus MetRS expressed in Escherichia coli BL21(DE3) cells assessed as increase in melting temperature incubated for 10 mins followed by heat treatment in presence of 0.30 to 10 mM ADP by SYPRO orange dye based TSA.
Experiment [33] shares this target. Put plainly: Binding affinity to Staphylococcus aureus MetRS expressed in Escherichia coli BL21(DE3) cells assessed as increase in melting temperature incubated for 10 mins followed by heat treatment in presence of <3 mM AMP by SYPRO orange dye based TSA.

Converted amounts (≈) assume the structure as drawn. The source made the active and inactive calls. The rule behind the calls is not given here.

Sequence of Methionine--tRNA ligase (Staphylococcus aureus (strain Mu50 / ATCC 700699)) (P67578 whole entry): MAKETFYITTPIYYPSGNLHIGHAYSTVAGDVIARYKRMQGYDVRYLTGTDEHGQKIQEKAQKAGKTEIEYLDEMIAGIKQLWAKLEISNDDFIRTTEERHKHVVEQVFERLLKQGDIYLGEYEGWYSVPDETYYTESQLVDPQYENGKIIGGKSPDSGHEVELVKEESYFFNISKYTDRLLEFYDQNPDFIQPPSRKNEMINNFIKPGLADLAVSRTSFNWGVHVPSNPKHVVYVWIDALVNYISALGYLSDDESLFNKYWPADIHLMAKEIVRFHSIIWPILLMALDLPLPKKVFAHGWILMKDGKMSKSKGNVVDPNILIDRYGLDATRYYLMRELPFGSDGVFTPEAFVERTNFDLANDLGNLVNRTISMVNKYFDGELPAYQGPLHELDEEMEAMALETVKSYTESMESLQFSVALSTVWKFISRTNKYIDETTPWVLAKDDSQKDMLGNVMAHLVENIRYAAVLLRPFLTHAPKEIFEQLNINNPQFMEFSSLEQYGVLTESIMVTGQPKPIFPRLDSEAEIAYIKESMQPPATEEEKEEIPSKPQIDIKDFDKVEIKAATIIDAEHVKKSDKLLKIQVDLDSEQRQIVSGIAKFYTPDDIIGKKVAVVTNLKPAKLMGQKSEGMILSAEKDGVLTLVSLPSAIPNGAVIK

Broadly, the ΔTm is the change in melting temperature against a reference sample. As for `N=C(NCCCCNC(=N)NC(=N)Nc1ccc(Cl)cc1)NC(=N)Nc1ccc(Cl)cc1`, the deltaH is -14.4 kcal/mol in [1], -8.62 kcal/mol in experiment [4], -18 kcal/mol in experiment [7] and -15.7 kcal/mol in experiment [10]. The deltaG is -8.7 kcal/mol in [2], -7.24 kcal/mol in experiment [5], -8 kcal/mol in experiment [8] and -8.61 kcal/mol in [11]. The -TdeltaS in experiment [3] was 6.23 kcal/mol; in experiment [6] it was 1.94 kcal/mol; in experiment [9], 11.3 kcal/mol; in [12], 7.28 kcal/mol. Moreover, in experiment [13], the ΔTm is 9 °C.
By inhibition is commonly meant the percentage by which the read-out fell short of the control. A word on the MIC: it is the lowest concentration found to suppress growth. With `N=C(NCCCCCCNC(=N)NC(=N)Nc1ccc(Cl)cc1)NC(=N)Nc1ccc(Cl)cc1` [CHLORHEXIDINE], the thermal shift (ΔTm) is -3.4 °C in experiment [14], 7 °C in [15] and 7 °C in [13]. In addition, in experiment [16], the inhibition worked out at 78.3%. Also, the deltaH in experiment [1] is -11 kcal/mol; in experiment [17], -13.6 kcal/mol; in experiment [22], -7.31 kcal/mol; in experiment [25], -11.3 kcal/mol; in [4], -5.95 kcal/mol; in experiment [7], -20 kcal/mol. In addition, the results for the deltaH in experiment [10] and in [29] were -18.8 kcal/mol and -12.5 kcal/mol, respectively. Further, the deltaG in experiment [2] is -8.66 kcal/mol; in [18], -7.34 kcal/mol; in experiment [23], -8.91 kcal/mol; in experiment [26], -7.23 kcal/mol; in experiment [5] it was -6.81 kcal/mol; in experiment [8], -7.52 kcal/mol. The figures for the deltaG in experiment [11] and in experiment [30] were -8.07 kcal/mol and -8.5 kcal/mol, respectively. Also, the -TdeltaS in experiment [3] is 2.31 kcal/mol; in experiment [19], 6.23 kcal/mol; in experiment [24], -1.6 kcal/mol; in [27], 4.06 kcal/mol; in experiment [6], 0.027 kcal/mol; in experiment [9], 13.8 kcal/mol. Moreover, the -TdeltaS was 10.7 kcal/mol in [12] and 4.43 kcal/mol in [31]. For the same compound, it took 0.25 µg/mL (≈ 0.495 µM) to inhibit growth in the experiment on Staphylococcus aureus (MIC). Further, the inhibition result in experiment [20] and in [21] was “Active” throughout. Besides, the outcome in experiment [28] and in experiment [32] was Active. In addition, in [33], the result was inactive.

For the origin of these results see ChEMBL document CHEMBL5506005, “Biochemical and structural characterization of chlorhexidine as an ATP-assisted inhibitor against type 1 methionyl-tRNA synthetase from Gram-positive bacteria” (Eur J Med Chem, 2024).
